We go through 3 compounds from patent US12465637B2, “Compositions and methods for modulation of antibody activity” (Institute for Cancer Research, priority 2019, dated 2025).

One may read the EC50 as the concentration at which the effect is half-maximal. A low value points to higher potency in that assay.

The test system of assay [1] is 4D5Flu triple mutant (VLF98G/VHV37A/VHW110G). Description: Fluorescein fluorescence quenching, effector (JK43/analog) rescue of triple mutant. The following applies: effector titration; 500 nM triple mutant, 10 nM fluorescein, 1% DMSO. Format: biochemical. The protocol:
For the protein titration experiment, samples were prepared by titrating varying concentrations of protein (WT or triple mutant) into PBS containing a final concentration of 10 nM fluorescein and 1% DMSO, with or without 100 μM JK43. For the JK43 titration experiment, samples were prepared by titrating varying concentrations of JK43 into PBS with a final concentration of 10 nM fluorescein, 1% DMSO and 500 nM protein (WT or triple mutant). For the SAR experiment, samples were prepared by adding 10 μM of JK43 analogs into PBS with a final concentration of 10 nM fluorescein, 1% DMSO and 500 nM triple mutant.
Fluorescence quenching experiments were carried out in a SpectraMax® i3x Multi-Mode Microplate Reader (Molecular Devices), using a Costar 96-well black round bottom plates, 200 μL reaction volume, excitation wavelength of 475 nm and emission wavelength of 525 nm, at a temperature of 27° C. Blank measurements containing all sample components except fluorescein were subtracted to remove background. All samples were normalized to a control of fluorescein alone (0% quenching) and buffer alone (100% quenching).

The subject of a further assay is CTLA-4. Description: CTLA-4 sandwich ELISA (BioLegend). Format: binding. Conditions: compared with ipilimumab. The protocol:
Two anti-CTLA-4 scFv constructs (3GSWT with -GG(GGSGG)3GG- linker (SEQ ID NO: 6) and 5GSWT with -GG(GGSGG)5GG- linker (SEQ ID NO: 7)) were generated based on ipilimumab. The activity of each scFv antibody construct was compared via a sandwich ELISA assay (BioLegend; San Diego, CA), according to the manufacturer's instruction.
The triple mutation (VLF98G/VHV37A/VHW110G) was introduced into the 5GSWT scFv construct. The ability of JK43 to rescue the triple mutant was then tested. Briefly, the ability of the wild-type (5GSWT scFv construct) and triple mutant constructs to bind CTLA-4 was tested in the presence or absence of JK43 using the above sandwich ELISA assay, according to the manufacturer's instructions.
Background: An ELISA detects its analyte on a solid surface through an enzyme-linked reagent.

Regarding `c1ccc(COc2ccc3cc[nH]c3c2)cc1` [JK25, 6-phenylmethoxy-1H-indole], the EC50 in assay [1] is 25 µM.
The compound `c1ccc(COc2ccc3cn[nH]c3c2)cc1` [JK43, 6-phenylmethoxy-1H-indazole] showed an EC50 in assay [1] of 16 µM.
As for “3GSWT: anti-CTLA-4 scFv based on ipilimumab with -GG(GGSGG)3GG- linker (SEQ ID NO: 22)”, in the assay with CTLA-4, the “Binding of CTLA-4 (FIG. 6B)” value is “readily bind CTLA-4, albeit slightly less potently than ipilimumab”.
